According to PubChem BioAssay (NCI):
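Tested at 5 concentrations; 48 h exposure; 96-well plates; endpoints linearly interpolated, else capped at highest concentration. GI50: concentration for 50% inhibition of growth. The concentration for full growth arrest is given as TGI.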

Key:
Test in all cases: inhibition of tumour cell growth, NCI panel, 48 h
[1] = system: A549 NSCLC
[2] = system: MOLT-4 leukemia
[3] = system: CAKI-1 renal
[4] = system: MCF7 breast
[5] = system: NCI-H522 lung
[6] = system: T-47D breast
[7] = system: SNB-75 CNS
[8] = system: A498 renal
[9] = system: SW-620 colon
[10] = system: LOX IMVI melanoma
[11] = system: BT-549 breast
[12] = system: IGROV1 ovarian
[13] = system: U251 CNS
[14] = system: NCI-H23 lung
[15] = system: UACC-257 melanoma
[16] = system: SN12C renal
[17] = system: HCT-15 colon
[18] = system: RXF 393 renal
[19] = system: KM12 colon
[20] = system: SNB-19 CNS
[21] = system: ACHN renal
[22] = system: DU-145 prostate
[23] = system: SK-MEL-5 melanoma
[24] = system: HCT-116 colon
[25] = system: SK-MEL-28 melanoma
[26] = system: CCRF-CEM leukemia
[27] = system: PC-3 prostate
[28] = system: NCI/ADR-RES ovarian
[29] = system: HCC-2998 colon
[30] = system: SK-OV-3 ovarian
[31] = system: MDA-MB-435
[32] = system: SF-268 CNS
[33] = system: TK-10 renal
[34] = system: RPMI-8226 leukemia
[35] = system: NCI-H226 lung
[36] = system: NCI-H460 lung
[37] = system: HOP-62 NSCLC
[38] = system: MDA-MB-231 breast
[39] = system: M14 melanoma
[40] = system: OVCAR-3 ovarian
[41] = system: SF-295 CNS
[42] = system: HOP-92 NSCLC
[43] = system: UO-31 renal
[44] = system: HL-60(TB) leukemia
[45] = system: HS 578T breast
[46] = system: SF-539 CNS
[47] = system: 786-0 renal
[48] = system: UACC-62 melanoma
[49] = system: OVCAR-5 ovarian
[50] = system: SR leukemia
[51] = system: OVCAR-8 ovarian
[52] = system: SK-MEL-2 melanoma
[53] = system: HT29 colon
[54] = system: COLO 205 colon
[55] = system: MALME-3M melanoma
[56] = system: OVCAR-4 ovarian
[57] = system: EKVX NSCLC

Compound Nc1c(C(=O)Nc2ccccc2)sc2nc3c(cc12)CCCCC3 has a GI50 [1] of 0.696 µM, a TGI [1] greater than 100 µM and a GI50 [2] of 2.67 µM. It also gave a TGI [2] greater than 100 µM, a GI50 [3] of 0.478 µM and a TGI [3] greater than 100 µM. For the same compound, the GI50 [4] was 0.332 µM, the TGI [4] was greater than 100 µM and the GI50 [5] was 4.9 µM. The TGI [5] was greater than 100 µM, the GI50 [6] was 0.834 µM and the TGI [6] was 80.6 µM. It also gave a GI50 [7] of 0.378 µM, a TGI [7] of 2.91 µM and a GI50 [8] of 0.307 µM. For the same compound, the TGI [8] was 4.74 µM, the GI50 [9] was 0.443 µM and the TGI [9] was greater than 100 µM. The GI50 [10] was 0.907 µM, the TGI [10] was greater than 100 µM and the GI50 [11] was 0.819 µM. The TGI [11] was 20.1 µM, the GI50 [12] was 6.08 µM and the TGI [12] was greater than 100 µM. The GI50 [13] was 0.767 µM, the TGI [13] was 19.5 µM and the GI50 [14] was 0.874 µM. The TGI [14] was 97.3 µM, the GI50 [15] was 1.46 µM and the TGI [15] was greater than 100 µM. For the same compound, the GI50 [16] was 1.88 µM, the TGI [16] was greater than 100 µM and the GI50 [17] was 0.421 µM. It also gave a TGI [17] greater than 100 µM, a GI50 [18] of 0.321 µM and a TGI [18] of 1.22 µM. For the same compound, the GI50 [19] was 0.52 µM, the TGI [19] was greater than 100 µM and the GI50 [20] was 0.643 µM. For the same compound, the TGI [20] was greater than 100 µM, the GI50 [21] was 0.998 µM and the TGI [21] was greater than 100 µM. The GI50 [22] was 0.619 µM, the TGI [22] was 31.4 µM and the GI50 [23] was 0.353 µM. The TGI [23] was 5.2 µM, the GI50 [24] was 0.46 µM and the TGI [24] was greater than 100 µM. For the same compound, the GI50 [25] was 0.812 µM, the TGI [25] was greater than 100 µM and the GI50 [26] was 0.41 µM. It also gave a TGI [26] greater than 100 µM, a GI50 [27] of 0.547 µM and a TGI [27] greater than 100 µM. The GI50 [28] was 0.507 µM, the TGI [28] was greater than 100 µM and the GI50 [29] was 1.01 µM. The TGI [29] was greater than 100 µM, the GI50 [30] was 0.633 µM and the TGI [30] was 10.8 µM. For the same compound, the GI50 [31] was 0.205 µM, the TGI [31] was 0.522 µM and the GI50 [32] was 1.1 µM. For the same compound, the TGI [32] was 54.4 µM, the GI50 [33] was 2.39 µM and the TGI [33] was 30.3 µM. The GI50 [34] was 0.372 µM, the TGI [34] was 14.3 µM and the GI50 [35] was 1.49 µM. For the same compound, the TGI [35] was 24.7 µM, the GI50 [36] was 0.46 µM and the TGI [36] was greater than 100 µM. It also gave a GI50 [37] of 0.88 µM, a TGI [37] of 13.9 µM and a GI50 [38] of 1.62 µM. For the same compound, the TGI [38] was 42 µM, the GI50 [39] was 0.278 µM and the TGI [39] was 0.945 µM. It also gave a GI50 [40] of 0.415 µM, a TGI [40] of 2.07 µM and a GI50 [41] of 0.366 µM. It also gave a TGI [41] of 4.04 µM, a GI50 [42] of 0.91 µM and a TGI [42] of 18 µM. For the same compound, the GI50 [43] was 0.917 µM, the TGI [43] was greater than 100 µM and the GI50 [44] was 0.319 µM. The TGI [44] was 1.85 µM, the GI50 [45] was 0.669 µM and the TGI [45] was 31.3 µM. It also gave a GI50 [46] of 0.307 µM, a TGI [46] of 12 µM and a GI50 [47] of 0.465 µM. For the same compound, the TGI [47] was 11.8 µM, the GI50 [48] was 0.41 µM and the TGI [48] was 19.4 µM. The GI50 [49] was 1.06 µM, the TGI [49] was greater than 100 µM and the GI50 [50] was 0.337 µM. The TGI [50] was 15.2 µM, the GI50 [51] was 1.51 µM and the TGI [51] was greater than 100 µM. For the same compound, the GI50 [52] was 1.72 µM and the TGI [52] was 20.4 µM.

Work on N#Cc1c(NCc2ccccc2)nc(NCc2ccccc2)c(C#N)c1-c1ccc(O)cc1 yielded a GI50 [1] of 34.1 µM, a TGI [1] greater than 100 µM and a GI50 [2] of 20.4 µM. For the same compound, the TGI [2] was greater than 100 µM, the GI50 [3] was 10.7 µM and the TGI [3] was 44.8 µM. For the same compound, the GI50 [4] was 39.7 µM, the TGI [4] was greater than 100 µM and the GI50 [5] was 20.2 µM. For the same compound, the TGI [5] was 75.1 µM, the GI50 [53] was 60.2 µM and the TGI [53] was greater than 100 µM. The GI50 [6] was 23.8 µM, the TGI [6] was greater than 100 µM and the GI50 [7] was 67.8 µM. It also gave a TGI [7] greater than 100 µM, a GI50 [8] of 24.9 µM and a TGI [8] of 63.5 µM. For the same compound, the GI50 [9] was 36.1 µM, the TGI [9] was greater than 100 µM and the GI50 [10] was 16.7 µM. It also gave a TGI [10] of 41.4 µM, a GI50 [11] of 32.8 µM and a TGI [11] greater than 100 µM. The GI50 [12] was 23.5 µM, the TGI [12] was 74.8 µM and the GI50 [13] was 19.2 µM. For the same compound, the TGI [13] was 54.5 µM, the GI50 [14] was 45.3 µM and the TGI [14] was greater than 100 µM. It also gave a GI50 [15] of 43.2 µM, a TGI [15] greater than 100 µM and a GI50 [16] of 5.99 µM. The TGI [16] was 53.2 µM, the GI50 [17] was 29.6 µM and the TGI [17] was greater than 100 µM. For the same compound, the GI50 [18] was 39.1 µM, the TGI [18] was greater than 100 µM and the GI50 [19] was 16.8 µM. It also gave a TGI [19] of 59.7 µM, a GI50 [20] of 50.5 µM and a TGI [20] greater than 100 µM. The GI50 [21] was 16.9 µM, the TGI [21] was 57.1 µM and the GI50 [22] was 32.4 µM. For the same compound, the TGI [22] was greater than 100 µM, the GI50 [54] was 36.3 µM and the TGI [54] was greater than 100 µM. For the same compound, the GI50 [23] was 15.3 µM, the TGI [23] was 34.3 µM and the GI50 [24] was 14.5 µM. It also gave a TGI [24] of 34.1 µM, a GI50 [25] of 66.7 µM and a TGI [25] greater than 100 µM. The GI50 [26] was 27.4 µM, the TGI [26] was greater than 100 µM and the GI50 [27] was 25.6 µM. For the same compound, the TGI [27] was greater than 100 µM, the GI50 [28] was 47 µM and the TGI [28] was greater than 100 µM. The GI50 [29] was 39.5 µM, the TGI [29] was greater than 100 µM and the GI50 [30] was 34.5 µM. It also gave a TGI [30] greater than 100 µM, a GI50 [31] of 25.2 µM and a TGI [31] of 69.8 µM. The GI50 [32] was 27.3 µM, the TGI [32] was greater than 100 µM and the GI50 [33] was 22.6 µM. For the same compound, the TGI [33] was 69.4 µM, the GI50 [34] was 21.9 µM and the TGI [34] was greater than 100 µM. The GI50 [55] was 29.5 µM, the TGI [55] was 68.5 µM and the GI50 [35] was 14.3 µM. The TGI [35] was 67.1 µM, the GI50 [36] was 21.2 µM and the TGI [36] was 53.6 µM. The GI50 [56] was 27.7 µM, the TGI [56] was greater than 100 µM and the GI50 [37] was 17.3 µM. The TGI [37] was 93 µM, the GI50 [38] was 2.68 µM and the TGI [38] was 33 µM. The GI50 [39] was 29.9 µM, the TGI [39] was greater than 100 µM and the GI50 [40] was 29.6 µM. The TGI [40] was 87.4 µM, the GI50 [41] was 27.1 µM and the TGI [41] was greater than 100 µM. It also gave a GI50 [42] of 0.316 µM, a TGI [42] of 7.96 µM and a GI50 [43] of 18.6 µM. For the same compound, the TGI [43] was 68.5 µM, the GI50 [45] was 22.9 µM and the TGI [45] was greater than 100 µM. It also gave a GI50 [46] of 13.1 µM, a TGI [46] of 37.4 µM and a GI50 [47] of 23 µM. The TGI [47] was greater than 100 µM, the GI50 [48] was 21.5 µM and the TGI [48] was greater than 100 µM. For the same compound, the GI50 [49] was 60.3 µM, the TGI [49] was greater than 100 µM and the GI50 [50] was 7.09 µM. It also gave a TGI [50] of 91.7 µM, a GI50 [57] of 48.5 µM and a TGI [57] greater than 100 µM. The GI50 [51] was 58.1 µM, the TGI [51] was greater than 100 µM and the GI50 [52] was 41.1 µM. It also gave a TGI [52] of 90.7 µM.
